Data as given in patent US8084596B2, “Regulated apoptosis” (The Board of Trustees of the Leland Stanford Junior …, priority 1993, dated 2011).

Biological target: T1, myristoylated Fas-FKBP12 fusion protein (MFF3E) (Homo sapiens, UniProt P25445)
T1 construct: expressed in transfected cells; host or cells: Jurkat T cells stably transformed with large T-antigen, transient transfection
Type: cell-based

T1 sequence (P25445 with tags, fused parts or gaps): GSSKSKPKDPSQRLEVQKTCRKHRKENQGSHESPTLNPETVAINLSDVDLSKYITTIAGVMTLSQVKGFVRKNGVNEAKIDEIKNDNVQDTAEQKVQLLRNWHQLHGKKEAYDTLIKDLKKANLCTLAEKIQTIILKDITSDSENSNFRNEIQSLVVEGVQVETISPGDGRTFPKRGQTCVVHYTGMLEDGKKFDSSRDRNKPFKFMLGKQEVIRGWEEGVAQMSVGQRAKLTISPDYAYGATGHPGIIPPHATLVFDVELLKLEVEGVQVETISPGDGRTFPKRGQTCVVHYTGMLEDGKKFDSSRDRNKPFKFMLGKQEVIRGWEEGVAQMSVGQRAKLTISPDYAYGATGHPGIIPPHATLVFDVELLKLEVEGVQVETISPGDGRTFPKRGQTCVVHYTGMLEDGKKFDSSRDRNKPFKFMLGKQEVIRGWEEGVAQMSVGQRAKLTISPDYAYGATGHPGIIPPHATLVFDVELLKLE

FK1012-A (p-xylylenediamine bridge) [FK1012A]
LD50 for mediated death of cells: 15 nM
